Consider ten compounds from patent US5610195A, “Ornithine decarboxylase inhibiting branched aminooxy amino alkane derivatives” (Ciba-Geigy Corporation, priority 1993, dated 1997).

In one experiment the target is T1, DAO from pig kidney (Sus scrofa, UniProt Q9TRC7).
T1 construct: DAO from pig kidney; purchased Sigma Chemie, Deisenhofen, Germany; host or cells: pig kidney
T1 sequence (Q9TRC7 25-755): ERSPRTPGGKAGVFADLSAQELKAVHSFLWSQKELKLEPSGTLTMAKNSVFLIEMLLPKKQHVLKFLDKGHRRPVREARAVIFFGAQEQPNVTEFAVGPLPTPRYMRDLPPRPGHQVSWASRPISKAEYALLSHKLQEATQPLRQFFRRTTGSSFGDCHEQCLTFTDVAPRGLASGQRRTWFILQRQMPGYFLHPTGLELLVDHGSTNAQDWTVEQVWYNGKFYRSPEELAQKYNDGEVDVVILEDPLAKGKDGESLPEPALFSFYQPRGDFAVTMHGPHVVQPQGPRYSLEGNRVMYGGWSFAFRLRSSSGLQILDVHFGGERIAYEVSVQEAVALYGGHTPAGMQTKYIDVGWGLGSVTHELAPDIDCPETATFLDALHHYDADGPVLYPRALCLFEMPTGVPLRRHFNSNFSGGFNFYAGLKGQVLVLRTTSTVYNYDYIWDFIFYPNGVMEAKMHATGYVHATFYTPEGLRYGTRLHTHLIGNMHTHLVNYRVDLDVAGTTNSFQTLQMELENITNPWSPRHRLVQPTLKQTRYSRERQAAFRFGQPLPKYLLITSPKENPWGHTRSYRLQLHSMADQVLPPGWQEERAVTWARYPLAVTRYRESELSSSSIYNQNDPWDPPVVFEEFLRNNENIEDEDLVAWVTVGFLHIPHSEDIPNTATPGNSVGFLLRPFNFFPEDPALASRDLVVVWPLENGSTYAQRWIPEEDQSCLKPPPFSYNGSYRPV
The experiment in a line: selectivity: inhibition of diamine oxidase (14C-putrescine assay) relative to ODC. The conditions noted are these: ODC from rat liver. The format is biochemical. Here is the method: Briefly, the batch contains (expressed as the final concentrations) 0.1M potassium phosphate buffer pH 7.4; 10 mM mercaptoethanol, 0.40 mM putrescine, including 40 nCi [1,4-^14 C]putrescine (Amersham, 110 Ci/mole) and variable amounts of enzyme protein (DAO) and inhibitor. For standard experiments, the batches are incubated for 30 minutes at 37° C. and then transferred to an ice-bath. The reaction is stopped by addition of 0.5 ml of ice-cold 1M Na2 CO3 solution which contains 1 mM aminoguanidine. After addition of 4 ml of toluene with 5 g/l of PPO (2,5-diphenyloxazole), the test tube is continuously inverted around the transverse axis at room temperature for 10 minutes, for mixing, and is then centrifuged at 1800×g in a centrifugal rotor at 4° C. for 5 minutes and finally frozen in ethanol/dry ice. […] After a total of 3 extractions, the combined toluene extracts (which contain the radiolabelled 1-pyrroline to the extent that it has been liberated from putrescine by the action of the DAO) are measured in a liquid scintillation counter (Rack Beta 1215, LKB-Wallac). For calculation of the radioactivity employed, an aliquot of the aqueous phase after 3 extractions is transferred to Whatman GF/C filter (glass fibre filter, Whatman, USA), dried in vacuo and, after addition of 5 ml of toluene/PPO, is counted. […]

The subject of a further experiment is ODC. The conditions noted are these: known compound, state of the art; cited from earlier work.
The subject of another experiment is diamine oxidase (DAO). Particulars: known compound, state of the art; cited from earlier work.
For experiment [1] the following is noted: cited: Eloranta et al., Life Chemistry Reports 9, 163-169 (1991); cited from earlier work.
The subject of experiment [2] is human T24 bladder carcinoma cells. Put plainly: inhibition of growth of human T24 bladder carcinoma cells (methylene blue staining). The class given is cell-based. The conditions noted are these: 120 h, read-out: T24 inhibition IC50. The method, then:
The carcinoma cells (1000-1500) are transinoculated into 96-well microtitre plates and incubated overnight under the conditions mentioned. The test substance is added in serial dilutions on day 1. The plates are incubated under the conditions mentioned for 5 days. […] After the incubation, the cells are fixed with 3.3% (weight/volume=w/v) aqueous glutaraldehyde solution, washed with water and stained with 0.05% (w/v) aqueous methylene blue solution. After washing, the dye is eluted with 3% (w/v) aqueous hydrochloric acid. Thereafter, the optical density (OD) per depression, which is directly proportional to the number of cells, is measured with a photometer (Titertek multiskan) at 665 nm. The IC50 values are calculated with a computer system using the formula [formula]

The next experiment deals with T2, ODC from the rat liver (Rattus norvegicus, UniProt P09057).
T2 sequence (P09057 1-461): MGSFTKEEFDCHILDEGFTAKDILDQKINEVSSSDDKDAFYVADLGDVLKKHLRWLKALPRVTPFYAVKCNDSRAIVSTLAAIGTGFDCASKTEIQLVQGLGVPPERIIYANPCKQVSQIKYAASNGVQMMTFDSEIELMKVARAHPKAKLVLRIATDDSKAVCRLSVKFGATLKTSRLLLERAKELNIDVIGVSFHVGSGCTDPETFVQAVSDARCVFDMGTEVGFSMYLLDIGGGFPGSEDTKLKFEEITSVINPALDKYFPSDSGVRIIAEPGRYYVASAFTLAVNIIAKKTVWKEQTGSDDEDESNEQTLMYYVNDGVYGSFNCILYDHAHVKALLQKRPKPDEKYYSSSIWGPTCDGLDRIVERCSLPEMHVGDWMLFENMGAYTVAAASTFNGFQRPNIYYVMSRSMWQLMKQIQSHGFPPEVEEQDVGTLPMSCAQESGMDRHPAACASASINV
Put plainly: inhibition of ornithine decarboxylase (Seely and Pegg method, ODC from rat liver). The class given is biochemical. Here is the method: White-Tabor (editors): Methods in Enzymology, Volume 94: Polyamines, Academic Press, New York 1983. If ODC from the rat liver is used in this test (isolation: Hayashi, S. I. and Kameji, T., same volume, pages 154-158), IC50 values in the micromolar range down to about 0.01 μM, preferably between about 0.01 and 1 μM, for example between 0.014 and 0.7 μM, are obtained for compounds of the formula I. IC50 is the concentration of the inhibitor at which the ODC activity is 50% of a control without inhibitor.
The following results were obtained for inhibition of ODC from the rat liver (see above, Seely and Pegg and Hayashi and Kameji) with determination of the IC50 and for inhibition of the tumour growth of T24 bladder carcinoma cells (described above) with determination of the IC50 : […]

Setting [3] is: human T24 bladder carcinoma cells, 5 days.

Usually IC50 stands for the midpoint of a concentration-inhibition curve.

SMILES strings stand for the structures. Structures can show the parent of a compound that is named as a salt. Where two headings read alike, the source gives them in different places.

Take `NCCCON` [APA, 1-aminooxy-3-aminopropane]: the “quotient of IC50 (DAO)/IC50 (ODC)” value on DAO from pig kidney is listed as “about 1.2”. In addition, in the experiment with ODC, the “inhibition of ODC (in words)” value is given as “potent inhibitor of ODC”. Moreover, in the experiment on diamine oxidase (DAO), the “selectivity with respect to diamine oxidase (in words)” value was “not selective with respect to diamine oxidase”. Further, the “activity in whole animals” value in experiment [1] was “practically no action in whole animal tests”. As to `C[C@H](N)CCON` [Example 1, (2S)-4-Aminooxy-2-butylamine dihydrochloride], the IC50 in experiment [2] (setting [3]) was 8100 nM; against ODC from the rat liver, 88 nM. As to `C[C@@H](N)CCON` [Example 2, (2R)-4-Aminooxy-2-butylamine dihydrochloride], the figures for the IC50 (in experiment [2] (setting [3]); at ODC from the rat liver) were 5490 nM and 27 nM, respectively. Turning to `CC(N)CCON` (centres unmarked) [Example 3, 4-Aminooxy-2-butylamine dihydrochloride], the IC50 came to 3760 nM in experiment [2] (setting [3]) and 19 nM at ODC from the rat liver. In turn, `CCC(N)CCON` (centres unmarked) [Example 4, 1-aminooxy-3-pentylamine dihydrochloride] displayed an IC50 on ODC from the rat liver of 360 nM. Same read-out and setting: to `CC(C)(N)CCON` [Example 5, 4-Aminooxy-2-methyl-2-butylamine dihydrochloride] belongs 300 nM; to `NOCC[C@H](N)CO` [Example 6, (2S)-4-Aminooxy-1-hydroxy-2-butylamine sulfate], 440 nM. Turning to `CC(CN)CON` (centres unmarked) [Example 7, 3-Aminooxy-2-methyl-1-propylamine sulfate], the IC50 was 2740 nM in experiment [2] (Homo sapiens) and 27 nM against ODC from the rat liver. At ODC from the rat liver, `CC(CCN)ON` (centres unmarked) [Example 9, 3-Aminooxy-1-butylamine dihydrochloride] returned an IC50 of 410 nM. As to `CC(N)C(C)CON` (centres unmarked) [Example 10, 4-Aminooxy-3-methyl-2-butylamine sulfate], at ODC from the rat liver, the IC50 was 320 nM.
